Measurements from paper PMC2680961, “Homologous desensitization of signalling by the alpha (α) isoform of the human thromboxane A2 receptor: A specific role for nitric oxide signalling” (Biochimica et Biophysica Acta, 2007).
Residue numbers refer to the chain shown, from its start.

Columns and labels:
[1] = biological target: T1, TPα^S329,331A (Homo sapiens, UniProt P21731, S329A/S331A); assay: Intracellular calcium mobilization, HEK.TPα^S329,331A cells; assay type: cell-based; settings: for Δ[Ca2+]i, U46619-induced: HEK.TPα^S329,331A
T1 construct: expressed in transfected cells
T1 sequence (P21731 1-343 S329A/S331A): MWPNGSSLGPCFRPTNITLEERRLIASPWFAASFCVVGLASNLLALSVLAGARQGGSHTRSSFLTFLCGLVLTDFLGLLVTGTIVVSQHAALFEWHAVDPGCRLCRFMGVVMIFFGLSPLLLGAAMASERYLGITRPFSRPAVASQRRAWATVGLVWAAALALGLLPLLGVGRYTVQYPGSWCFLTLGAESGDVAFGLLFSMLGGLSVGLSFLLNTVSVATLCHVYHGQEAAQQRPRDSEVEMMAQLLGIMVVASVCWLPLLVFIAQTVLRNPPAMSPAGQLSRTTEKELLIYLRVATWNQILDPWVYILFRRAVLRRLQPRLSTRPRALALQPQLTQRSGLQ
Description: (§1) Measurement of intracellular calcium mobilization ([Ca^2+]i) in FURA2/AM preloaded HEK 293 cell lines (2 × 10^6 cells/dish), each transiently co-transfected with pADVA (10 μg), and pCMV:Gαq (25 μg), was carried out as previously described. To investigate the effect of GRK2/βARK1 on TP-mediated [Ca^2+]i mobilization, HEK.TPα or HEK.TPβ cells (2 × 10^6 cells/dish) were co-transfected with pADVA (10 μg), pCMV:Gαq (25 μg) along with pRK5:βARK1^495–689 (25 μg), encoding a dominant negative form of GRK2/βARK1[39]. Approximately 48 h post-transfection, cells were harvested by scraping, washed twice in ice-cold PBS and resuspended in HBSSHB (modified Ca^2+/Mg^2+-free Hank's buffered salt solution, containing 10 μM HEPES, pH 7.67, 0.1% bovine serum albumin (BSA)) buffer at 10^7 cells/ml and incubated in the dark with 5 μM FURA2/AM for 45 min at 37 °C. […] For each measurement of [Ca^2+]i mobilization, aliquots of cells were diluted to 0.825 × 10^6 cells/ml in HBSSHB, 1 mM CaCl2 and FURA2 fluorescence was recorded (2 ml aliquots of cells) at 37^ °C with gentle stirring with a Perkin Elmer-Cetus LS50-B spectrofluorometer at excitation wavelengths of 340 nm and 380 nm and emission wavelength of 510 nm, respectively.
Cells were stimulated with the TP agonist U46619 (1 μM) and changes in [Ca^2+]i mobilization were monitored as a function of time. To assess agonist-mediated homologous desensitization, cells (0.825 × 10^6 cells/ml; 2 ml per assay) were stimulated with 1 μM U46619 (Primary stimulation) or, as a control, with the vehicle for 4 min; thereafter, cells were collected by centrifugation (900×g, 5 min); were washed twice in 2 ml HBSSHB, 1 mM CaCl2; and finally resuspended in 2 ml HBSSHB,1 mM CaCl2 and were left to recover over various time intervals (ranging from 0 to 60 min); thereafter, cells re-stimulated with 1 μM U46619 (Secondary stimulation) and changes in [Ca^2+]i mobilization were monitored as a function of time. […]

[2] = biological target: T2, TPα^T337,S340A (Homo sapiens, UniProt P21731, S340A/T337A); assay: Intracellular calcium mobilization, HEK.TPα^T337,S340A cells; assay type: cell-based
T2 construct: expressed in transfected cells
T2 sequence (P21731 1-343 T337A/S340A): T1 sequence (P21731 1-343 S329A/S331A) with A329S, A331S, T337A, S340A
Description: as §1, with “GRK2/βARK1[39].” for “GRK2/βARK1[39]. Approximately 48 h post-transfection, cells were harvested by scraping, washed twice in ice-cold PBS and resuspended in HBSSHB (modified Ca^2+/Mg^2+-free Hank's buffered salt solution, containing 10 μM HEPES, pH 7.67, 0.1% bovine serum albumin (BSA)) buffer at 10^7 cells/ml and incubated in the dark with 5 μM FURA2/AM for 45 min at 37 °C.”
Cells were stimulated with the TP agonist U46619 (1 μM) and changes in [Ca^2+]i mobilization were monitored as a function of time. […]
The vehicle had no effect on U46619-mediated [Ca^2+]i mobilization. Calibration of the signal was performed in each sample by adding 0.2% Triton X-100 to obtain the maximal fluorescence ratio (Rmax) and then 1 mM EGTA to obtain the minimal fluorescence ratio (Rmin). […]

[3] = secondary 1 μM U46619 at 15 min

Question: Which “Δ[Ca2+]i, U46619-induced” value ([1]; primary 1 μM U46619 4 min) does the source give for CCCCC[C@H](O)/C=C/[C@@H]1[C@@H](C/C=C\CCCC(=O)O)[C@H]2CO[C@@H]1C2 [U46619] here?
Answer: Its value is 176 ± 9.4 nM.

Question: What about the “Δ[Ca2+]i, U46619-induced” value [1, 3] of the same molecule?
Answer: Its value is 63 ± 4.4 nM.

Question: What about the “secondary U46619 [Ca2+]i response relative to primary response” value ([1]; printed as TPα^S239,331A, Fig. 6A and B) of the same molecule?
Answer: The value was 36%.

Question: And the “Δ[Ca2+]i, U46619-induced” value ([2]; primary 1 μM U46619 4 min)?
Answer: Its value is 179 ± 11 nM.

Question: And the “Δ[Ca2+]i, U46619-induced” value [2, 3]?
Answer: The value was 40 ± 3.4 nM.
